Key:
IL-6 (THP-1 cells) = experiment: Inhibition of IL-6 in LPS-stimulated THP-1 monocytes (HTRF); type: cell-based; details: Homo sapiens; for EC50: LPS 500 ng/mL, IL-6 by HTRF; for inhibition at 10 µM: LPS stimulated, IL-6, at 10 μM, read-out: percent inhibition at 10 μM (given for EC50 of >10 μM)
How it was run: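 THP-1 cells, serum-starved in 1% FBS for 24 h, were pre-incubated 2 h with compound (10-point, 1:3 from 10 μM, 0.1% DMSO), then stimulated with 500 ng/mL LPS for 22 h at 37 °C. IL-6 was quantified by HTRF 665/620 ratio. EC50 was fitted from DMSO-normalized data; above 10 μM, % inhibition at 10 μM is given.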

[1] = test system: Wnt activity (Sp5-Luc reporter, SW480 colon carcinoma cells); experiment: Screening assay for Wnt activity: Sp5-Luc reporter gene assay in SW480 cells; type: cell-based; details: Homo sapiens; for inhibition at 10 µM: 10 μM compound, read-out: percent inhibition at 10 μM (given for EC50 of >10 μM); for EC50: overnight incubation, 10-point dose-response from 10 μM
How it was run: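 SW480 cells stably carrying Sp5-Luc reporter (eight TCF/LEF sites) plated at 4,000/well in 1% FBS medium with compound (10-point 1:3 series from 10 μM, 0.1% DMSO) overnight at 37 °C. BrightGlo luminescence normalized to DMSO; EC50 by four-parameter fit, else % inhibition at 10 μM.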

SMILES | EC50 (IL-6 (THP-1 cells)) [µM] | inhibition at 10 µM (IL-6 (THP-1 cells)) [%] | inhibition at 10 µM [1] [%] | EC50 [1] [µM]
CCCC(=O)Nc1cncc(-c2ccc3[nH]nc(-c4nc5c(-c6cc(F)cc(CNS(C)(=O)=O)c6)ccnc5[nH]4)c3n2)c1 [Compound 493, N-(5-(3-(7-(3-fluoro-5-(methylsulfonamidomethyl)phenyl)-3H-imidazo[4,5-b]pyridin-2-yl)-1H-pyrazolo[4,3-b]pyridin-5-yl)pyridin-3-yl)butyramide] | > 10 | 23.4 | 14.8 | > 10
CS(=O)(=O)NCc1cc(F)cc(-c2ccnc3[nH]c(-c4n[nH]c5ccc(-c6cncnc6)nc45)nc23)c1 [Compound 503, N-(3-Fluoro-5-(2-(5-(pyrimidin-5-yl)-1H-pyrazolo[4,3-b]pyridin-3-yl)-3H-imidazo[4,5-b]pyridin-7-yl)benzyl)methanesulfonamide] | > 10 | 29.6 | 14.1 | > 10
Fc1cccc(-c2ccnc3[nH]c(-c4n[nH]c5ccc(C6CCNCC6)nc45)nc23)c1 [Compound 505, 3-(7-(3-fluorophenyl)-3H-imidazo[4,5-b]pyridin-2-yl)-5-(piperidin-4-yl)-1H-pyrazolo[4,3-b]pyridine] | 3.48 |  | 16 | > 10
Fc1cccc(-c2ccnc3[nH]c(-c4n[nH]c5ccc(-c6cn[nH]c6)nc45)nc23)c1 [Compound 507, 3-(7-(3-fluorophenyl)-3H-imidazo[4,5-b]pyridin-2-yl)-5-(1H-pyrazol-4-yl)-1H-pyrazolo[4,3-b]pyridine] | > 10 | 35.9 | 17 | > 10
Cn1cc(-c2ccc3[nH]nc(-c4nc5c(-c6cccc(F)c6)ccnc5[nH]4)c3n2)cn1 [Compound 508, 3-(7-(3-fluorophenyl)-3H-imidazo[4,5-b]pyridin-2-yl)-5-(1-methyl-1H-pyrazol-4-yl)-1H-pyrazolo[4,3-b]pyridine] | > 10 | 15.5 | 41 | > 10
Fc1cccc(-c2ccnc3[nH]c(-c4n[nH]c5ccc(-c6cncc(OC7CCNCC7)c6)nc45)nc23)c1 [Compound 512, 3-(7-(3-fluorophenyl)-3H-imidazo[4,5-b]pyridin-2-yl)-5-(5-(piperidin-4-yloxy)pyridin-3-yl)-1H-pyrazolo[4,3-b]pyridine] | > 10 | 35.7 | 45 | > 10
c1cncc(-c2ccnc3[nH]c(-c4n[nH]c5ccc(-c6cncc(OC7CCCCC7)c6)nc45)nc23)c1 [Compound 559, 5-(5-(Cyclohexyloxy)pyridin-3-yl)-3-(7-(pyridin-3-yl)-3H-imidazo[4,5-b]pyridin-2-yl)-1H-pyrazolo[4,3-b]pyridine] | > 10 | 31.6 | 12.4 | > 10
Oc1cncc(-c2ccc3[nH]nc(-c4nc5c(-c6cccnc6)ccnc5[nH]4)c3n2)c1 [Compound 565, 5-(3-(7-(Pyridin-3-yl)-3H-imidazo[4,5-b]pyridin-2-yl)-1H-pyrazolo[4,3-b]pyridin-5-yl)pyridin-3-ol] | 9.48 |  | 14.1 | > 10
c1cc(-c2ccnc3[nH]c(-c4n[nH]c5ccc(-c6cncc(OC7CCNCC7)c6)nc45)nc23)ccn1 [Compound 576, 5-(5-(Piperidin-4-yloxy)pyridin-3-yl)-3-(7-(pyridin-4-yl)-3H-imidazo[4,5-b]pyridin-2-yl)-1H-pyrazolo[4,3-b]pyridine] | > 10 | 38.1 | 8.9 | > 10
c1ccc(COc2cncc(-c3ccc4[nH]nc(-c5nc6c(-c7ccncc7)ccnc6[nH]5)c4n3)c2)cc1 [Compound 582, 5-(5-(Benzyloxy)pyridin-3-yl)-3-(7-(pyridin-4-yl)-3H-imidazo[4,5-b]pyridin-2-yl)-1H-pyrazolo[4,3-b]pyridine] | > 10 | 3.2 | 5.8 | > 10

— patent US10329309B2, “3-(3H-imidazo[4,5-B]pyridin-2-yl)-1H-pyrazolo[4,3-B]pyridines and therapeutic uses thereof” (Samumed, LLC, priority 2015, dated 2019)
